Columns and labels:
[1] = target: T1, Avi-KRAS G12V (2-169) GTP/RAF1 RBD-3xFLAG (51-131) (Homo sapiens, UniProt P01116, G12V); experiment: Raf1-KRAS G12V-GTP disruption HTRF assay (Biological Example 3); type: binding; conditions: KRAS G12V, GTP-loaded
T1 construct: Avi-KRAS G12V (2-169)
Experimental: (§1) Biological Example 3: Disrupting RAS-Effector Binding HTRF Assay
(§2) A protein:protein interaction (PPI) Homogeneous Time Resolved Fluorescence (HTRF) assay was used to determine the effectiveness of compounds in disrupting KRAS protein and effector (RAF1) binding.
(§3) The HTRF assay used the following reagents and proteins: (i) 50 nM Avi-KRAS G12D (2-169) GTP/RAF1 RBD-3xFLAG (51-131): (ii) 50 nM Avi-KRAS G12C (2-169) GTP/RAF1 RBD-3xFLAG (51-131): (iii) 50 nM Avi-KRAS G12V (2-169) GTP/RAF1 RBD-3xFLAG (51-131); (iv) 50 nM Avi-KRAS WT (2-169) GTP/RAF1 RBD-3xFLAG (51-131); and (v) 75 nM 3xFLAG-RAF1 RBD (51-131)-Avi. The assay buffer included: 50 mM Tris pH 7.5 (Invitrogen, 15567-027), 100 mM NaCl (Sigma, S5150-IL), 5 mM MgCl2 (Sigma, 63069), 0.1% BSA (Sigma, A7030), 0.01% Tween 20 (Sigma, P7949), 10% DMSO (Cell Signaling, 12611). The bead buffer included: 50 mM Tris pH 7.5 (Invitrogen, 15567-027), 0.01% Tween 20 (Sigma, P7949). An assay volume of 20 μL was used in a 384 well plate-low volume format. Compound titration: 30-0.005 μM, 3x dilution series.
(§4) The HTRF assay employed the following protocol:
(§5) Compounds were dispensed in assay plate (384-well, Grenier Bio-One #784075) using Echo (model 555) with dose response settings: 200 nL final volume, titration from 30 μM as a 10-point dilution series. Proteins and HTRF reagents were mixed and dispensed onto plates, 20 μL per well, and then incubated for 1 h at room temperature, with 700 rpm shaking.
(§6) Plates were analyzed on an Envision plate reader using the following setting: Excitation 320 nm, Bandwidth 75 nm; Emission 615 nm, Bandwidth 85 nm; Gain 100%; Flashes 100; Lag 60 μs. Data was reported as percentage of activity, with DMSO as 100%. Data was plotted and analyzed using Prism 8.
(§7) The biochemical Raf1-KRAS G12D/G12V/G12C/WT-GTP disruption assay IC50 of selected compounds described herein are shown in Table 12.

[2] = target: T2, Avi-KRAS G12D (2-169) GTP/RAF1 RBD-3xFLAG (51-131) (Homo sapiens, UniProt P01116, G12D); experiment: Raf1-KRAS G12D-GTP disruption HTRF assay (Biological Example 3); type: binding; conditions: KRAS G12D, GTP-loaded
T2 construct: Avi-KRAS G12D (2-169)
T2 sequence (P01116 2-169 isoform P01116-2 G12D): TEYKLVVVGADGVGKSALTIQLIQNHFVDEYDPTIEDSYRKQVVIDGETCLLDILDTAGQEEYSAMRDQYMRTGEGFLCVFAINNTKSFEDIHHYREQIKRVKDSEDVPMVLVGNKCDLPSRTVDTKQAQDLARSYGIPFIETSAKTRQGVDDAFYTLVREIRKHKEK
Experimental: as §1, §2, §3, §4, §5, §6, §7

[3] = test system: GP2d cells (KRAS G12D); experiment: Cell-based pERK HTRF assay in GP2d cell (Biological Example 2); conditions: GP2d, GP2d (KRAS G12D) cells
Summary of the method: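 60 min compound, 0.25% DMSO, 9-pt half-log curve from 1 μM or 100 nM; DMEM/10% FBS.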

[4] = target: T3, Avi-KRAS WT (2-169) GTP/RAF1 RBD-3xFLAG (51-131) (Homo sapiens, UniProt P01116); experiment: Raf1-KRAS WT-GTP disruption HTRF assay (Biological Example 3); type: binding; conditions: KRAS WT, GTP-loaded
T3 construct: Avi-KRAS WT (2-169)
T3 sequence (P01116 2-169 isoform P01116-2): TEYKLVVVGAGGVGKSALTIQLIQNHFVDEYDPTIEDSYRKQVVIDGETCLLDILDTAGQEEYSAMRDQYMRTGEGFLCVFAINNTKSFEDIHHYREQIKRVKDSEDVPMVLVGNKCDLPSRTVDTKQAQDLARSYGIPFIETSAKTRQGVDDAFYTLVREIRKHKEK
Experimental: as §1, §2, §3, §4, §5, §6, §7

[5] = target: T4, Avi-KRAS G12C (2-169) GTP/RAF1 RBD-3xFLAG (51-131) (Homo sapiens, UniProt P01116, G12C); experiment: Raf1-KRAS G12C-GTP disruption HTRF assay (Biological Example 3); type: binding; conditions: KRAS G12C, GTP-loaded
T4 construct: Avi-KRAS G12C (2-169)
T4 sequence (P01116 2-169 isoform P01116-2 G12C): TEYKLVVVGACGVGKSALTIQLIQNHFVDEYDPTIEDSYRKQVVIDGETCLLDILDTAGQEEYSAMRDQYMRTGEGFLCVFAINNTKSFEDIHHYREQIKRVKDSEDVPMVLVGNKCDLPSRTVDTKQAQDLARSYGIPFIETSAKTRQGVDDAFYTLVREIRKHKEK
Experimental: as §1, §2, §3, §4, §5, §6, §7

[6] = test system: SW620 cells (KRAS G12V); experiment: Cell-based pERK HTRF assay in SW620 cell (Biological Example 4); conditions: Homo sapiens, SW-620, SW620 (KRAS G12V) cells
Summary of the method: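 In SW620 cells grown in RPMI with 10% FBS, a 4 h compound treatment (0.25% DMSO, 9-point curve from 1 μM) preceded lysis. Phospho-ERK levels were then read by time-resolved FRET at 615 nm emission.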

[7] = target: T5, Avi-KRAS G12V (1-169) GppNHp/RAF1 RBD-3xFLAG (52-151) (Homo sapiens, UniProt P01116, G12V); experiment: Raf1-KRAS G12V-GppNHP disruption HTRF assay (Biological Example 1); type: binding; conditions: KRAS G12V, GppNHp-loaded
T5 construct: Avi-KRAS G12V (1-169)
T5 sequence (P01116 1-169 isoform P01116-2 G12V): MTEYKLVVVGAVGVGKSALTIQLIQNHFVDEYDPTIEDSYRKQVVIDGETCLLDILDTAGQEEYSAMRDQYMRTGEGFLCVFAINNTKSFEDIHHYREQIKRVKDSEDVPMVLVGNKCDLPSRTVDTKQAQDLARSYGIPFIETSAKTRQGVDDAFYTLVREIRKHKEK
Summary of the method: (§8)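 Using HTRF, the loss of KRAS–effector RAF1 complex was quantified in 50 mM Tris pH 7.5 buffer with 100 mM NaCl and 0.1% BSA. The protein step and reagent step ran 1 h each at room temperature. Activity normalized with DMSO taken as 100%.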

[8] = target: T6, Avi-KRAS G12R (1-169) GppNHp/RAF1 RBD-3xFLAG (52-151) (Homo sapiens, UniProt P01116, G12R); experiment: Raf1-KRAS G12R-GppNHP disruption HTRF assay (Biological Example 1); type: binding; conditions: KRAS G12R, GppNHp-loaded
T6 construct: Avi-KRAS G12R (1-169)
T6 sequence (P01116 1-169 isoform P01116-2 G12R): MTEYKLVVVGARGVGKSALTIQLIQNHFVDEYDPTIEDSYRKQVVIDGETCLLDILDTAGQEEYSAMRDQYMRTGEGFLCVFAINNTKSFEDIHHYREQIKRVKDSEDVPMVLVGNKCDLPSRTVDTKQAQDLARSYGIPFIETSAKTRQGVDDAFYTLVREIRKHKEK
Summary of the method: as §8

[9] = target: T7, Avi-KRAS G12D (1-169) GppNHp/RAF1 RBD-3xFLAG (52-151) (Homo sapiens, UniProt P01116, G12D); experiment: Raf1-KRAS G12D-GppNHP disruption HTRF assay (Biological Example 1); type: binding; conditions: KRAS G12D, GppNHp-loaded
T7 construct: Avi-KRAS G12D (1-169)
T7 sequence (P01116 1-169 isoform P01116-2 G12D): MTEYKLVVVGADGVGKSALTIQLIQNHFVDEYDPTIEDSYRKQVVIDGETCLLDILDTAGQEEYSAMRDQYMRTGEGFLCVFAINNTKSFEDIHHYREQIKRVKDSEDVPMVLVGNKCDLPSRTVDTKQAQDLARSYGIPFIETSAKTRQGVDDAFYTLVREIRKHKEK
Summary of the method: as §8

[10] = target: T8, Avi-KRAS WT (1-169) GppNHp/RAF1 RBD-3xFLAG (52-151) (Homo sapiens, UniProt P01116); experiment: Raf1-KRAS WT-GppNHP disruption HTRF assay (Biological Example 1); type: binding; conditions: KRAS WT, GppNHp-loaded
T8 construct: Avi-KRAS WT (1-169)
T8 sequence (P01116 1-169 isoform P01116-2): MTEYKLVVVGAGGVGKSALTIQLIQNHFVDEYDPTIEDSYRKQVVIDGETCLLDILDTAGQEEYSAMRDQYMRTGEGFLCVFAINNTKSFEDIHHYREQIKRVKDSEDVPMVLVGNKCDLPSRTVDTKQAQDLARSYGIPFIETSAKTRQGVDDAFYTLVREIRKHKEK
Summary of the method: as §8

T1 sequence (P01116 2-169 isoform P01116-2 G12V): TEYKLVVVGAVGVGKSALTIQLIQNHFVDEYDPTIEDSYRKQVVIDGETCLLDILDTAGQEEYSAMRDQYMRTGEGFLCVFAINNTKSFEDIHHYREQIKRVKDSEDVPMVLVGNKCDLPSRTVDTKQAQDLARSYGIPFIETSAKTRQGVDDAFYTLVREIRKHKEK

| SMILES | IC50 [1] [nM] | IC50 [2] [nM] | IC50 [3] [nM] | IC50 [4] [nM] | IC50 [5] [nM] | IC50 [6] [nM] | IC50 ([7]; class symbols) [nM] | IC50 ([8]; class symbols) [nM] | IC50 ([3]; pERK HTRF, class symbols) [nM] | IC50 ([9]; class symbols) [nM] | IC50 ([10]; class symbols) [nM] | IC50 ([6]; pERK HTRF, class symbols) [nM] | further results |
| --- | --- | --- | --- | --- | --- | --- | --- | --- | --- | --- | --- | --- | --- |
| CCN(c1nc(OC[C@@]23CCCN2C[C@H](F)C3)nc2c(F)c(-c3ccc(F)c4sc(N)c(C#N)c34)c(C(F)(F)F)cc12)[C@@H]1CC[C@@H](C(=O)N(C)C)C1 (atropisomer, axis not shown) [Compound 827] | 1000 to 10000 | 1000 to 10000 | < 100 | 1000 to 10000 | 1000 to 10000 | < 100 | – | – | – | – | – | – | – |
| CCN(c1nc(OC[C@@]23CCCN2C[C@H](F)C3)nc2c(F)c(-c3ccc(F)c4sc(N)c(C#N)c34)c(C(F)(F)F)cc12)[C@H]1C[C@H]2CCCC(=O)N2C1 (atropisomer, axis not shown; (aR)) [Compound 662, 2-amino-4-((S)-4-(ethyl((2S,8aR)-5-oxooctahydroindolizin-2-yl)amino)-8-fluoro-2-(((2R,7aS)-2-fluorotetrahydro-1H-pyrrolizin-7a(5H)-yl)methoxy)-6-(trifluoromethyl)quinazolin-7-yl)-7-fluorobenzo[b]thiophene-3-carbonitrile] | ≤ 100 | ≤ 100 | < 100 | 100 to 1000 | ≤ 100 | < 100 | – | – | – | – | – | – | – |
| CCN(c1nc(OC[C@@]23CCCN2C[C@H](F)C3)nc2c(F)c(-c3ccc(F)c4sc(N)c(C#N)c34)c(C(F)(F)F)cc12)[C@H]1C[C@H]2[C@H](C)OC(=O)N2C1 (atropisomer, axis not shown) [Compound 836] | 100 to 1000 | 100 to 1000 | < 100 | 100 to 1000 | 100 to 1000 | < 100 | – | – | – | – | – | – | – |
| CCOC1CN(C(=O)N2CC[C@H](N(CC)c3nc(OC[C@@]45CCCN4C[C@H](F)C5)nc4c(F)c(-c5ccc(F)c6sc(N)c(C#N)c56)c(C(F)(F)F)cc34)C2)C1 (atropisomer, axis not shown) [Compound 758] | – | – | – | – | – | – | < 100 | < 100 | < 100 | < 100 | < 100 | < 100 | – |
| CCN(c1nc(OC[C@@]23CCCN2C[C@H](F)C3)nc2c(F)c(-c3ccc(F)c4sc(N)c(C#N)c34)c(C(F)(F)F)cc12)[C@H]1C[C@H](COC)N(C(=O)OC)C1 (atropisomer, axis not shown) [Compound 718] | – | – | – | – | – | – | < 100 | < 100 | < 100 | < 100 | < 100 | < 100 | – |
| CCN(c1nc(OC[C@@]23CCCN2C[C@H](F)C3)nc2c(F)c(-c3ccc(F)c4sc(N)c(C#N)c34)c(C(F)(F)F)cc12)[C@H]1CCN(C(=O)[C@H](C)OC)[C@@H]1C (atropisomer, axis not shown) [Compound 781] | – | – | – | – | – | – | 100 to 1000 | < 100 | < 100 | < 100 | < 100 | < 100 | – |
| N#Cc1c(N)sc2c(F)ccc(-c3c(C(F)(F)F)cc4c(N5CCCC(O)CC5)nc(OC[C@@]56CCCN5C[C@H](F)C6)nc4c3F)c12 (stereo partly shown) [Compound 267] | – | – | – | – | – | – | – | – | – | – | – | – | IC50 ([7]; Table 11): 100 to 1000 nM; IC50 ([8]; Table 11): < 100 nM; IC50 ([3]; pERK HTRF): < 100 nM; IC50 ([9]; Table 11): < 100 nM; IC50 ([10]; Table 11): 100 to 1000 nM; IC50 ([6]; pERK HTRF): < 100 nM |
| CCN(c1nc(OC[C@@]23CCCN2C[C@H](F)C3)nc2c(F)c(-c3ccc(F)c4sc(N)c(C#N)c34)c(C(F)(F)F)cc12)[C@H]1C[C@H](COC)N(C(=O)N(C)C)C1 (atropisomer, axis not shown) [Compound 717] | – | – | – | – | – | – | 100 to 1000 | 100 to 1000 | < 100 | 100 to 1000 | 100 to 1000 | < 100 | – |

Second part, led by results:

| IC50 [1] [nM] | IC50 [2] [nM] | IC50 [3] [nM] | IC50 [4] [nM] | IC50 [5] [nM] | IC50 [6] [nM] | IC50 ([7]; class symbols) [nM] | IC50 ([8]; class symbols) [nM] | IC50 ([3]; pERK HTRF, class symbols) [nM] | IC50 ([9]; class symbols) [nM] | IC50 ([10]; class symbols) [nM] | IC50 ([6]; pERK HTRF, class symbols) [nM] | SMILES | further results |
| --- | --- | --- | --- | --- | --- | --- | --- | --- | --- | --- | --- | --- | --- |
| 100 to 1000 | 100 to 1000 | < 100 | 100 to 1000 | 100 to 1000 | < 100 | – | – | – | – | – | – | CCN(c1nc(OC[C@@]23CCCN2C[C@H](F)C3)nc2c(F)c(-c3ccc(F)c4sc(N)c(C#N)c34)c(C(F)(F)F)cc12)[C@H]1CCN(C(=O)c2ncoc2C)C1 (atropisomer, axis not shown) [Compound 901] | – |
| 100 to 1000 | 100 to 1000 | < 100 | 100 to 1000 | 100 to 1000 | < 100 | – | – | – | – | – | – | CCN(c1nc(OC[C@@]23CCCN2C[C@H](F)C3)nc2c(F)c(-c3ccc(F)c4sc(N)c(C#N)c34)c(C(F)(F)F)cc12)[C@H]1C[C@H](COC)N(C(=O)[C@H]2C[C@H]2F)C1 (atropisomer, axis not shown) [Compound 847] | – |
| 100 to 1000 | 100 to 1000 | < 100 | 1000 to 10000 | 100 to 1000 | < 100 | – | – | – | – | – | – | CN(Cc1cccnn1)c1nc(OC[C@@]23CCCN2C[C@H](F)C3)nc2c(F)c(-c3ccc(F)c4sc(N)c(C#N)c34)c(C(F)(F)F)cc12 (atropisomer, axis not shown) [Compound 876] | – |
| 100 to 1000 | 100 to 1000 | < 100 | 100 to 1000 | 100 to 1000 | < 100 | – | – | – | – | – | – | CCN(c1nc(OC[C@@]23CCCN2C[C@H](F)C3)nc2c(F)c(-c3ccc(F)c4sc(N)c(C#N)c34)c(C(F)(F)F)cc12)[C@H]1C[C@H](COC)N(C(=O)[C@@H]2C[C@H]2F)C1 (atropisomer, axis not shown) [Compound 848] | – |
| 100 to 1000 | 100 to 1000 | – | 100 to 1000 | 100 to 1000 | – | – | – | – | – | – | – | CCN(c1nc(OC[C@@]23CCCN2C[C@H](F)C3)nc2c(F)c(-c3ccc(F)c4sc(N)c(C#N)c34)c(C(F)(F)F)cc12)[C@H]1C[C@H](C(=O)N(C)C)C1 (atropisomer, axis not shown) [Compound 950] | – |

From patent US20260042764A1, “COMPOSITIONS AND METHODS FOR INHIBITION OF KRAS” (TheRas, Inc., priority 2022, published 2026)
